Consider 21 compounds from patent US11390609B2, “Rho-associated protein kinase inhibitor, pharmaceutical composition comprising same, and preparation method and use thereof” (BEIJING TIDE PHARMACEUTICAL CO., LTD., priority 2017, dated 2022).

One test has as its target ROCK2 (Homo sapiens, UniProt O75116). The test is described as follows: ROCK2 kinase IC50 assay (CISBIO HTRF KinEASE-STK S2 kit). The class given is biochemical. As to conditions: incubated at room temperature for 2 hours. Summed up:
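HTRF KinEASE-STK S2 format with recombinant ROCK2 (1.4 ng per well), STK-S2 substrate and ATP from 5× working solutions of 1.5 μM each, run 2 h at room temperature. Nine-point dilutions from 10000 nM top concentration; 665/615 nm emission ratio normalised to no-compound and no-kinase controls, curve-fitted for IC50.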

Another test deals with ROCK1 (Homo sapiens (Human), UniProt Q13464). The experiment in a line: ROCK1 kinase IC50 assay (biological test method similar to the ROCK2 assay). The class given is biochemical. The procedure, abridged: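 Compound dilution series (9 concentrations, top solution 10000 nM, DMSO-containing buffer) incubated 2 h at room temperature with kinase, STK-S2 substrate and ATP (5× working solutions of 1.5 µM each). Phosphorylation detected by HTRF (665/615 nm emission ratio) after 1 h; inhibition relative to full-reaction and kinase-free wells, fitted for IC50.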
Sequence of ROCK1 (Q13464 whole entry, species assumed): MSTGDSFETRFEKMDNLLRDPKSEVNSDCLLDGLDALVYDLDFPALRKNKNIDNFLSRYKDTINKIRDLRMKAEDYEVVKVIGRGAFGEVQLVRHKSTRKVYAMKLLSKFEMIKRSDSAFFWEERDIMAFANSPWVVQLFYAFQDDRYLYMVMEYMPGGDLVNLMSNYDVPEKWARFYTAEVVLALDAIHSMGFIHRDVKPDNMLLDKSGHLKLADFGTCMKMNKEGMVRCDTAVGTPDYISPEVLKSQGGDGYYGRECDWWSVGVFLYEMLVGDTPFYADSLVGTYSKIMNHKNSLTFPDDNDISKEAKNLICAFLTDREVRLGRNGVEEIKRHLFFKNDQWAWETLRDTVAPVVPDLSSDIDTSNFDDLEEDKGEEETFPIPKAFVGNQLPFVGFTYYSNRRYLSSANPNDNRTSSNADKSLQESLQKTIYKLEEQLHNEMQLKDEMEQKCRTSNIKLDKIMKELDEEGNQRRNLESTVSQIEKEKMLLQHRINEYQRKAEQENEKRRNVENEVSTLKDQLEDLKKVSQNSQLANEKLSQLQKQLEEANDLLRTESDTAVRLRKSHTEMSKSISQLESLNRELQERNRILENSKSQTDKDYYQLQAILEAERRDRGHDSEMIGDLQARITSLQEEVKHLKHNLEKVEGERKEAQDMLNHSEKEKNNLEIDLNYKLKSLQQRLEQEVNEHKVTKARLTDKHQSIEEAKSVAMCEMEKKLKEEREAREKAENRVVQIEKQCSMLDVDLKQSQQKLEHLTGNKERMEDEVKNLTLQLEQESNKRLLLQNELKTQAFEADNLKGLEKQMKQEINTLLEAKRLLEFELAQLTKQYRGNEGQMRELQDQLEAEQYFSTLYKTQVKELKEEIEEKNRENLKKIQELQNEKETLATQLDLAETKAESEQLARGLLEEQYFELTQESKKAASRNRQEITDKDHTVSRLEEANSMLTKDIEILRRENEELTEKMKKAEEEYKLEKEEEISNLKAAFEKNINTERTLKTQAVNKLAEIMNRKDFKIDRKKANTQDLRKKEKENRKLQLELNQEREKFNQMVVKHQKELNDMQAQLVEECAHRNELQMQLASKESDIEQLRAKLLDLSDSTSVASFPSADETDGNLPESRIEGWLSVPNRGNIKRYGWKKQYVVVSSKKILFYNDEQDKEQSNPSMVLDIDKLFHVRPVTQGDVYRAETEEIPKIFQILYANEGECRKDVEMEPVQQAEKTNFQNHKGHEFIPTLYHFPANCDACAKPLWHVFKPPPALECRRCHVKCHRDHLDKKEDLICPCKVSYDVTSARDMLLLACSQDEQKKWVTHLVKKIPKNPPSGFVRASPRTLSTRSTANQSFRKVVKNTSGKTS

For orientation: IC50 means the concentration that gives 50% inhibition. A higher IC50 goes with weaker potency in that assay. Turning to `O=C(OC1CC2(CNC2)C1)N1Cc2ccc(-c3nccc(Nc4ccc(-c5cn[nH]c5)cc4)n3)cc2C1` [TDI01634, 2-azaspiro[3.3]heptan 6-yl 5-(4-((4-(1H-pyrazol-4-yl)phenyl)amino)pyrimidin-2-yl)isoindoline-2-carboxylate], the IC50 worked out at 16 nM against ROCK2 and 2040 nM at ROCK1.

Regarding `O=C(OC1CCC(F)(F)CC1)N1CCc2cc(-c3nccc(Nc4ccc(-c5cn[nH]c5)cc4)n3)ccc2C1` [TDI01656, 4,4-difluorocyclohexyl 6-(4-((4-(1H-pyrazol-4-yl)phenyl)amino)pyrimidin-2-yl)-3,4-dihydroisoquinoline-2(1H)-carboxylate], the figures for the IC50 on ROCK2 and against ROCK1 were 442 nM and over 10000 nM, respectively.

With `COCc1cnc(-c2ccc3cc(C(=O)N4CC(F)(F)C4)n(C)c3c2)nc1Nc1ccc(-c2cn[nH]c2)cc1` [TDI01668, (6-(4-((4-(1H-pyrazol-4-yl)phenyl)amino)-5-(methoxymethyl)pyrimidin-2-yl)-1-methyl-1H-indol-2-yl)(3,3-difluoroazetidin-1-yl)methanone], the figures for the IC50 on ROCK2 and on ROCK1 were 42 nM and over 10000 nM, respectively.

Turning to `O=C(c1cc2ccc(-c3ncc(F)c(Nc4ccc(-c5cn[nH]c5)cc4)n3)cc2s1)N1CC(F)(F)C1` [TDI01675, (6-(4-((4-(1H-pyrazol-4-yl)phenyl)-amino)-5-fluoro-pyrimidin-2-yl)benzo[b]-thiophen-2-yl)(3,3-difluoroazetidin-1-yl)methanone], the results for the IC50 against ROCK2 and against ROCK1 were 84 nM and over 10000 nM, respectively.

With `CC1(C(=O)N2CCc3ccc(-c4nccc(Nc5ccc(-c6cn[nH]c6)cc5)n4)cc3C2)CC(F)(F)C1` [TDI01676, (7-(4-((4-(1H-pyrazol-4-yl)phenyl)amino)pyrimidin-2-yl)-3,4-dihydroisoquinolin-2(1H)-yl)(3,3-difluoro-1-methylcyclobutyl) methanone], the IC50 is 242 nM against ROCK2 and over 10000 nM at ROCK1.

As to `Cn1c(C(=O)N2CC(F)(F)C2)cc2ccc(-c3ncc(C(F)(F)F)c(Nc4ccc(-c5cn[nH]c5)cc4)n3)cc21` [TDI01681, (6-(4-((4-(1H-pyrazol-4-yl)phenyl)amino)-5-(trifluoromethyl)pyrimidin-2-yl)-1-methyl-1H-indol-2-yl)(3,3-difluoroazetidin-1-yl)methanone], the results for the IC50 on ROCK2 and on ROCK1 were 238 nM and over 10000 nM, respectively.

Consider `O=C(C1CC(F)(F)C1)N1CCc2cc(-c3nccc(Nc4ccc5[nH]ncc5c4)n3)ccc2C1` [TDI01683, (6-(4-((1H-indazol-5-yl)amino)pyrimidin-2-yl)-3,4-dihydroisoquinolin-2(1H)-yl)(3,3-difluorocyclobutyl)methanone], for which the IC50 on ROCK2 is 360 nM; against ROCK1, over 10000 nM.

In the case of `CC(NC(=O)c1cc2ccc(-c3nccc(Nc4ccc(-c5cn[nH]c5)cc4)n3)cc2n1C)C(F)(F)F` (stereo not drawn) [TDI01691], the IC50 came to 6 nM against ROCK2 and 159 nM against ROCK1.

Consider `COc1cnc(-c2ccc3cc(C(=O)Nc4ccnnc4)[nH]c3c2)nc1Nc1ccc2[nH]ncc2c1` [TDI01813, 6-(4-((1H-indazol-5-yl)amino)-5-methoxy-pyrimidin-2-yl)-N-(pyridazin-4-yl)-1H-indole-2-carboxamide], for which the values for the IC50 against ROCK2 and on ROCK1 were 90 nM and over 10000 nM, respectively.

As to `c1ccc2oc(-c3cc4ccc(-c5nccc(Nc6ccc7[nH]ncc7c6)n5)cc4[nH]3)nc2c1` [TDI01816, N-(2-(2-(benzo[d]oxazol-2-yl)-1H-indol-6-yl]pyrimidin-4-yl)-1H-indazol-5-amine], the figures for the IC50 against ROCK2 and against ROCK1 were 111 nM and 6010 nM, respectively.

With `c1cc(Nc2ccc(-c3cn[nH]c3)cc2)nc(-c2ccc3cc(-c4nccs4)[nH]c3c2)n1` [TDI01826, N-(4-(1H-pyrazol-4-yl)phenyl)-2-(2-(thiazol-2-yl)-1H-indol-6-yl)pyrimidin-4-amine], the IC50 against ROCK2 is 75 nM; at ROCK1, over 10000 nM.

Regarding `COc1cc(Nc2ccnc(-c3ccc4cc(C(=O)N(C)C)[nH]c4c3)n2)ccc1-c1cn[nH]c1` [TDI01832, 6-(4-((3-methoxy-4-(1H-pyrazol-4-yl)phenyl)ami-no)pyrimidin-2-yl)-N, N-dimethyl-1H-indole-2-carboxamide], the concentration for half-maximal inhibition (IC50) at ROCK2 was 167 nM; against ROCK1 it was over 10000 nM.

For the compound `O=C(NC1CCCN(c2ccncc2)C1)c1cc2ccc(-c3nccc(Nc4ccc5[nH]ncc5c4)n3)cc2[nH]1` (stereo not drawn) [TDI01840, 6-(4-((1H-indazol-5-yl)amino)-pyrimidin-2-yl)-N-(1-(pyridin-4-yl)piperidin-3-yl)-1H-indole-2-carboxamide], the figures for the IC50 against ROCK2 and at ROCK1 were 5 nM and 89 nM, respectively.

Take `Cn1c(C(=O)Nc2ccncc2Cl)cc2ccc(-c3nccc(Nc4ccc5[nH]ncc5c4)n3)cc21` [TDI01841, 6-(4-((1H-indazol-5-yl)amino)-pyrimidin-2-yl)-N-(3-chloropyridin-4-yl)-1-methyl-1H-indole-2-carboxamide]: the results for the IC50 against ROCK2 and against ROCK1 were 11 nM and 1000 nM, respectively.

With `CN(C)C(=O)c1cc2ccc(-c3nccc(Nc4ccc(-c5cn[nH]c5)c(F)c4)n3)cc2[nH]1` [TDI01842, 6-(4-((3-fluoro-4-(1H-pyrazol-4-yl)phenyl)ami-no)pyrimidin-2-yl)-N, N-dimethyl-1H-indole-2-carboxamide], the figures for the IC50 against ROCK2 and at ROCK1 were 120 nM and 3000 nM, respectively.

In the case of `O=C(Nc1ccnnc1)c1cc2ccc(-c3ncc(Cl)c(Nc4ccc5[nH]ncc5c4)n3)cc2[nH]1` [TDI01844, 6-(4-((1H-indazol-5-yl)amino)-5-chloropyrimidin-2-yl)-N-(pyridazin-4-yl)-1H-indole-2-carboxamide], the figures for the IC50 at ROCK2 and at ROCK1 were 370 nM and over 10000 nM, respectively.

In the case of `Cn1c(C(=O)N2CC(F)(F)C2)cc2ccc(-c3nc(Nc4ccc(-c5cn[nH]c5)cc4)c4c(n3)OCCO4)cc21` [TDI01851, (6-(4-((4-(1H-pyrazol-4-yl)phenyl)amino)-6,7-dihydro-[1,4]dioxino[2,3-d]pyrimidin-2-yl)-1-methyl-1H-indol-2-yl)(3,3-difluoroazetidin-1-yl)methanone], the IC50 against ROCK2 was 15 nM; at ROCK1, over 10000 nM.

As to `CC(C)NC(=O)N1Cc2ccc(-c3nc(Nc4ccc(-c5cn[nH]c5)cc4)c4occc4n3)cc2C1` [TDI01861, 5-(4-((4-(1H-pyrazol-4-yl)phenyl)amino)furo[3,2-d]pyrimidin-2-yl)-N-isopropylisoindoline-2-carboxamide], the IC50 is 41 nM against ROCK2 and over 10000 nM against ROCK1.

As for `CC(C)NC(=O)c1cc2ccc(-c3nc(Nc4ccc(-c5cn[nH]c5)cc4)c4ccccc4n3)cc2[nH]1` [TDI01862, 6-(4-((4-(1H-pyrazol-4-yl)phenyl)-amino)-quinazolin-2-yl)-N-isopropyl-1H-indole-2-carboxamide], the IC50 is 382 nM at ROCK2 and over 10000 nM on ROCK1.

On to `CC(C)NC(=O)c1cc2ccc(-c3nc(Nc4ccc(-c5cn[nH]c5)cc4)c4occc4n3)cc2[nH]1` [TDI01864, 6-(4-((4-(1H-pyrazol-4-yl)phenyl)ami-no)furo[3,2-d]pyrimidin-2-yl)-N-isopropyl-1H-indole-2-carboxamide], for which the IC50 against ROCK2 is 30 nM; against ROCK1 it was 3000 nM.

Consider `COc1cnc(-c2ccc3cc(C(=O)N(C)CC(F)(F)F)[nH]c3c2)nc1Nc1ccc(-c2cn[nH]c2)cc1` [TDI01868, 6-(4-((4-(1H-pyrazol-4-yl)phenyl)-amino)-5-methoxy-pyrimidin-2-yl)-N-methyl-N-(2,2,2-trifluoroethyl)-1H-indole-2-carboxamide], for which the IC50 is 32 nM against ROCK2 and over 10000 nM on ROCK1.
